# Test results published in patent US20120009152A1, “NITRIC OXIDE DONORS FOR TREATMENT OF DISEASE AND INJURY” (priority 2002, published 2012).
# Key:
# [1] = test system: brain-derived endothelial cells; assay: Endothelial tube formation, total tube length; format: cell-based; settings: vs control medium DMEM 1.4 (0.1); p<0.01
# Source text: The enhance induction of angiogenesis is also evident from in vitro studies of tubule formation in brain derived endothelial cells. […] The endothelial cells formed a network of capillary-like structures with numerous intercellular contacts.
# [2] = test system: BrdU immunoreactive cells in dentate gyrus, SVZ and OB; assay: Cell proliferation (BrdU) in non-ischemic young adult rats; format: in vivo, rat
# Procedure: The effects of an NO donor administered to normal young adult rats on the induction of cell proliferation within three regions of brain, the dentate gyrus, the olfactory bulb (OB) and the subventricular zone (SVZ) were tested. […] Young male Wister rats (3-4 month old) received 4 consecutive). I.V bolus doses of DETA/NONOate (0.1 mg/kg each, every 15 min, and total dose of 0.4 mg/kg) on the first experimental day and DETA/NONOate (0.4 mg/kg) was administered (i.p) daily for an additional 6 consecutive days. Rats that received saline were used as a control group. Bromodeoxyuridine (BrdU) was used as mitotic labeling to measure cell proliferation. Animals received daily i.p injections of BrdU (50 mg/kg, Sigma) on the first experimental day and subsequently for 14 consecutive days. Rats were sacrificed at 14 and 42 days after the treatment. BrdU immunoreactive nuclei were counted on a computer monitor to improve visualization and in one focal plane to avoid over-sampling. Structures were sampled either by selecting predetermined areas on each section (OB) or by analyzing entire structures on each section (SVZ and dentate gyrus) (Zhang et al., 2001). All BrdU immunoreactive-positive nuclei in these areas are presented as the number of the BrdU immunoreactive cells/mm^2. Density for the selected several sections was averaged to obtain a mean density value for each animal (Zhang et al., 2001).
# [3] = test system: cerebral vessels in the ischemic penumbra; assay: Angiogenesis after MCAo, combination study (BrdU endothelial cells, three-dimensional vessel analysis); format: in vivo, rat; settings: vs control MCAo group
# Procedure: Male Wistar rats (n=32) were subjected to middle cerebral artery occlusion (MCAo) and were randomized with 8 rats in four treatment groups, with treatment initiated 1 day after stroke. Groups included: 1) phosphate buffered saline (PBS); 2) subtherapeutic DETA-NONOate (NN) at a dose of 0.4 mg/kg (IP); 3) subtherapeutic hMSCs (1×10^6 cells-iv); and 4) combination subtherapeutic NN and hMSCs. Functional outcome measurements consisted of a Neurologic Severity Scale (18 point scale) (NSS) and the Adhesive Removal Test performed prior to stroke, immediately before treatment and at 7 and 14 days after treatment. […] However, there was an overall hMSC effect on NSS at 14 days.
# Enlarged and thin walled vessels are termed “mother” vessels and have been found under conditions of cerebral ischemic angiogenesis.
# FIGS. 11B and C are computer generated three-dimensional images derived from the original images. Different colors in FIG. 11B represent individual vessels, which were not connected to each other. Green and red colors in FIG. 11C code for diameter of blood vessels less then 7.5 μm (red) and larger then 7.5 μm (green), respectively. […] Enlarged vessels can develop into capillaries after ischemia.
# [4] = cited from earlier work
# [5] = test system: rats subjected to embolic middle cerebral artery occlusion; assay: Adhesive removal test after embolic MCA occlusion; format: in vivo, rat
# Procedure: Male Wistar rats weighing 320 to 380 g were used in the present study. The middle cerebral artery (MCA) was occluded by placement of an embolus at the origin of the MCA.
# Ischemic rats (n=9) were treated with the same volume of tap water as a control group. Functional tests were performed and body weight was measured before ischemia and at 4, 7, 14, 21, and 28 days after onset of MCA occlusion. All rats were killed 28 days after MCA occlusion. […] These rats were killed 1 hour after the last treatment for measurements of brain levels of cGMP. […] Experiments were also performed to examine brain PDE5, nonischemic rats and ischemic rats were killed at 2, 4, 24, 48, and 168 hours after the onset of ischemia (n=3 for each time point). Reverse transcription (RT)-polymerase chain reaction (PCR) was performed to detect PDE5 in brain tissue.
# An adhesive removal test was used to measure somatosensory deficits and was performed before MCA occlusion and at 4, 7, 14, 21 and 28 days after MCA occlusion.
# [6] = Animal body weight loss after embolic MCA occlusion; format: in vivo, rat
# Procedure: Male Wistar rats weighing 320 to 380 g were used in the present study. The middle cerebral artery (MCA) was occluded by placement of an embolus at the origin of the MCA. […] Ischemic rats (n=9) were treated with the same volume of tap water as a control group. Functional tests were performed and body weight was measured before ischemia and at 4, 7, 14, 21, and 28 days after onset of MCA occlusion. All rats were killed 28 days after MCA occlusion. […] These rats were killed 1 hour after the last treatment for measurements of brain levels of cGMP. […] Reverse transcription (RT)-polymerase chain reaction (PCR) was performed to detect PDE5 in brain tissue. Animals were weighed before and at 4, 7, 14, 21, and 28 days after embolic ischemia. Body weight loss is presented as a percentage of […] body weight.
# [7] = Sildenafil 2 mg/kg, 2 h group, Before Ischemia (baseline)
# [8] = Sildenafil 2 mg/kg, 24 h group, Before Ischemia (baseline)
# [9] = Sildenafil 5 mg/kg, 2 h group, Before Ischemia (baseline)
smiles,measurement,setting,value
"NCCN(CCN)/[N+]([O-])=N/O [DETANONOate, (Z)-1-[N-(2-aminoethyl)-N-(2-ammonioethyl)aminio]diazen-1-ium-1,2-diolate]",Total tube length,[1],4.6±0.6 mm/mm^2
same,"numbers of BrdU reactive cells within the dentate gyrus, SVZ and OB","[2]; non-ischemic young adult rats (3-4 month old), DETA/NONOate 0.4 mg/kg daily 7 days, 14 and 42 days, vs saline",Statistically significant increased
same,newly generated cells within the dentate gyrus exhibiting neuronal markers NeuN and MAP2,[2]; non-ischemic young adult rats administered DETA/NONO-ate,More than 95%
same,"BrdU immunoreactive endothelial cells in enlarged vessels, ipsilateral hemisphere",[3],significant (p<0.05) increase
CCCc1nn(C)c2c(=O)[nH]c(-c3cc(S(=O)(=O)N4CCN(C)CC4)ccc3OCC)nc12 [Sildenafil],half-life in rats,[4],24 min
same,Adhesive Removal Test,"[5]; Sildenafil 2 mg/kg, 2 h, 4 d",96.4 ± 9.8 s
same,Adhesive Removal Test,"[5]; Sildenafil 2 mg/kg, 2 h, 7 d",41.9 ± 8.4 s
same,Adhesive Removal Test,"[5]; Sildenafil 2 mg/kg, 2 h, 14 d",27.6 ± 3.9 s
same,Adhesive Removal Test,"[5]; Sildenafil 2 mg/kg, 2 h, 21 d",23.6 ± 5.1 s
same,Adhesive Removal Test,"[5]; Sildenafil 2 mg/kg, 2 h, 28 d",15.9 ± 3.8 s
same,Adhesive Removal Test,[5]; [7],7.0 ± 0.1 s
same,Adhesive Removal Test,"[5]; Sildenafil 2 mg/kg, 24 h, 4 d",102 ± 6.6 s
same,Adhesive Removal Test,"[5]; Sildenafil 2 mg/kg, 24 h, 7 d",49.4 ± 4.5 s
same,Adhesive Removal Test,"[5]; Sildenafil 2 mg/kg, 24 h, 14 d",14.1 ± 1.3 s
same,Adhesive Removal Test,"[5]; Sildenafil 2 mg/kg, 24 h, 21 d",14.0 ± 1.0 s
same,Adhesive Removal Test,"[5]; Sildenafil 2 mg/kg, 24 h, 28 d",10.7 ± 0.9 s
same,Adhesive Removal Test,[5]; [8],6.8 ± 0.3 s
same,Adhesive Removal Test,"[5]; Sildenafil 5 mg/kg, 2 h, 4 d",100.7 ± 9.2 s
same,Adhesive Removal Test,"[5]; Sildenafil 5 mg/kg, 2 h, 7 d",70.7 ± 10.8 s
same,Adhesive Removal Test,"[5]; Sildenafil 5 mg/kg, 2 h, 14 d",38.6 ± 7.9 s
same,Adhesive Removal Test,"[5]; Sildenafil 5 mg/kg, 2 h, 21 d",26.0 ± 6.6 s
same,Adhesive Removal Test,"[5]; Sildenafil 5 mg/kg, 2 h, 28 d",14.8 ± 3.9 s
same,Adhesive Removal Test,[5]; [9],16.7 ± 0.4 s
same,% of Preischemic Body Weight,"[6]; Sildenafil 2 mg/kg, 2 h, 4 d",81.8 ± 2.3%
same,% of Preischemic Body Weight,"[6]; Sildenafil 2 mg/kg, 2 h, 7 d",86.6 ± 2.5 %
same,% of Preischemic Body Weight,"[6]; Sildenafil 2 mg/kg, 2 h, 14 d",89.6 ± 4.7 %
same,% of Preischemic Body Weight,"[6]; Sildenafil 2 mg/kg, 2 h, 21 d",98.2 ± 3.7 %
same,% of Preischemic Body Weight,"[6]; Sildenafil 2 mg/kg, 2 h, 28 d",105.2 ± 3.0 %
same,% of Preischemic Body Weight,[6]; [7],100%
same,% of Preischemic Body Weight,"[6]; Sildenafil 2 mg/kg, 24 h, 4 d",86.9 ± 0.2%
same,% of Preischemic Body Weight,"[6]; Sildenafil 2 mg/kg, 24 h, 7 d",84.9 ± 1.8 %
same,% of Preischemic Body Weight,"[6]; Sildenafil 2 mg/kg, 24 h, 14 d",89.2 ± 2.6 %
same,% of Preischemic Body Weight,"[6]; Sildenafil 2 mg/kg, 24 h, 21 d",99.5 ± 2.0 %
same,% of Preischemic Body Weight,"[6]; Sildenafil 2 mg/kg, 24 h, 28 d",107.2 ± 2.5 %
same,% of Preischemic Body Weight,[6]; [8],100%
same,% of Preischemic Body Weight,"[6]; Sildenafil 5 mg/kg, 2 h, 4 d",84.6 ± 1.8%
same,% of Preischemic Body Weight,"[6]; Sildenafil 5 mg/kg, 2 h, 7 d",81.8 ± 2.5 %
same,% of Preischemic Body Weight,"[6]; Sildenafil 5 mg/kg, 2 h, 14 d",84.7 ± 3.9%
same,% of Preischemic Body Weight,"[6]; Sildenafil 5 mg/kg, 2 h, 21 d",95.2 ± 3.5 %
same,% of Preischemic Body Weight,"[6]; Sildenafil 5 mg/kg, 2 h, 28 d",101.3 ± 4.3%
same,% of Preischemic Body Weight,[6]; [9],100%
